Patent US4774345A, “Amine-complexed zinc salts of organic diacids” (Engelhard Corporation, priority 1986, dated 1988)
“Also recorded” adds a separate entry of the source. Where two headings read alike, the source gives them in different places.

Key:
[1] = Electrochemical testing (Tafel Plot), corrosion current, corrosion potential and pH of simulated acid rain saturated with pigment
[2] = Salt spray exposure, Example V (alkyd and latex primers)
[3] = Primary skin irritation; format: in vivo; details: 0.5 g in Saline Paste
[4] = Draize eye irritation; format: in vivo; details: 100 mg
[5] = Salt spray exposure, Example VI (ASTM B117-73; alkyd and latex primers); details: for Salt spray durability, in words: FIG. 3, alkyd formulation
[6] = water
[7] = in vivo; cited from earlier work
[8] = Acute oral toxicity; format: in vivo
[9] = Table III, simulated acid rain electrolyte pH about 4.2, saturated with pigment

Question: For `NCCN.O=C([O-])CCCCCCCC(=O)[O-].[Zn+2]` [Compound 5, Zinc Azelate Ethylenediamine], which pH ([1]; Table III) is on record?
Answer: Its pH is 6.78.

Question: And the “Corrosion Pot. (Ecorr)” value ([1]; Table III, against saturated calomel electrode)?
Answer: Its value is -667 millivolts.

Question: What about the “Corrosion Curr. (Icorr)” value [1, 9] of the same molecule?
Answer: Its value is 82 microamps.

Question: What about the “Effect of kaolin on salt spray performance” value ([2]; distended on kaolin) of the same molecule?
Answer: Its value is “anomolously reduced the performance”.

Question: What does the source list for `O=C([O-])CCCCCCCCCCC(=O)[O-].OCCN(CCO)CCO.[Zn+2]` [Compound 10, Zinc Dibasate Triethanolamine]?
Answer: Corrosion Curr. (Icorr) [1]: 93 microamps; Corrosion Pot. (Ecorr) [1]: -580 millivolts; pH [1]: 7.2

Question: Which “Corrosion Curr. (Icorr)” value [1] does the source give for Zinc Dibasate Piperidine [Compound 24] here?
Answer: The value was 40 microamps.

Question: What about the “Corrosion Pot. (Ecorr)” value [1] of the same molecule?
Answer: The value was -610 millivolts.

Question: With `NCCN.O=C([O-])c1ccccc1C(=O)[O-].[Zn+2]` [Compound 17, Zinc Phthalate Ethylenediamine] as the molecule, how does the “Skin Irritation, rating in words” value [3] read?
Answer: Its value is “non-irritating”.

Question: And the “Corrosion Curr. (Icorr)” value [1]?
Answer: Its value is 83 microamps.

Question: Which “Skin Irritation, rating in words” value [3] does the source give for “Zinc Sulfonyldiphenolate Ethylenediamine [Compound 15]” here?
Answer: Its value is “non-irritating”.

Question: And the “Corrosion Curr. (Icorr)” value [1]?
Answer: The value was 170 microamps.

Question: And the “Corrosion Pot. (Ecorr)” value [1]?
Answer: The value was -592 millivolts.

Question: And the pH [1]?
Answer: Its pH is 7.67.

Question: And the “Eye Irritation, rating in words” value [4]?
Answer: Its value is “severely irritating”.

Question: With `NCCN.O=C([O-])CCCCCCCCCCC(=O)[O-].[Zn+2]` [Compound 11, Zinc Dodecanedioate Ethylenediamine] as the molecule, how does the “Salt spray durability, in words” value [5] read?
Answer: The value was “superior to "Zinc Yellow" (zinc chromate) in salt spray durability”.

Question: And the “Corrosion Curr. (Icorr)” value [1, 9]?
Answer: The value was 130 microamps.

Question: Which “Salt spray durability, in words” value [5] does the source give for `NCCN.O=C([O-])CCCCC(=O)[O-].[Zn+2]` [Compound 3, Zinc Adipate Ethylenediamine] here?
Answer: Its value is “superior to "Zinc Yellow" (zinc chromate) in salt spray durability”.

Question: And the “Skin Irritation, rating in words” value [3]?
Answer: Its value is “minimally irritating”.

Question: And the “Corrosion Curr. (Icorr)” value [1, 9]?
Answer: Its value is 78 microamps.

Question: What about the “Eye Irritation, rating in words” value [4] of the same molecule?
Answer: The value was “moderately-irritating”.

Question: With `NCCN.O=C([O-])CCCCCCCCC(=O)[O-].[Zn+2]` [Compound 6, Zinc Sebacate Ethylenediamine] as the molecule, how does the “Skin Irritation, rating in words” value [3] read?
Answer: The value was “minimally irritating”.

Question: What about the “Corrosion Curr. (Icorr)” value [1] of the same molecule?
Answer: Its value is 170 microamps.

Question: What about the “Corrosion Pot. (Ecorr)” value [1] of the same molecule?
Answer: Its value is -462 millivolts.

Question: And the pH [1]?
Answer: Its pH is 6.8.

Question: What about the “Eye Irritation, rating in words” value [4] of the same molecule?
Answer: Its value is “severely irritating”.

Question: For “Zinc Dibasate Propylenediamine [Compound 8]”, which “Solubility Description” value [6] is on record?
Answer: The value was “SS (key: PINS: practically insoluble (<.1 g/100 cc H2 O); SS: slightly soluble (.1 to 1 g/100 cc H2 O); MS: moderately soluble)”.

Question: For “Zinc Thiodiphenolate Propylenediamine [Compound 20]”, which “Corrosion Curr. (Icorr)” value [1] is on record?
Answer: The value was 46 microamps.

Question: And the “Corrosion Pot. (Ecorr)” value [1]?
Answer: The value was -560 millivolts.

Question: What about the pH [1] of the same molecule?
Answer: The pH was 8.18.

Question: Which “Salt spray durability, in words” value [5] does the source give for `NCCN.O=C([O-])c1cccc(C(=O)[O-])c1.[Zn+2]` [Compound 18, Zinc Isophthalate Ethylenediamine] here?
Answer: The value was “superior to "Zinc Yellow" (zinc chromate) in salt spray durability”.

Question: With zinc chromate as the molecule, how does the TDLo [7] read?
Answer: Its TDLo is 12 mg/kg.

Question: Which “Acute oral toxicity, mortality” value ([8]; Oral (5 g/kg in Corn Oil)) does the source give for Zinc Dibasate Diethylamine [Compound 9] here?
Answer: Its value is 0%.

Question: What about the “Corrosion Pot. (Ecorr)” value [1] of the same molecule?
Answer: Its value is -570 millivolts.

Question: What about the pH [1] of the same molecule?
Answer: Its pH is 7.0.

Question: What about the “Eye Irritation, rating in words” value [4] of the same molecule?
Answer: Its value is “mildly irritating”.

Question: With `CC(N)CN.O=C([O-])CCCCC(=O)[O-].[Zn+2]` [Compound 4, Zinc Adipate Propylenediamine] as the molecule, how does the “Salt spray durability, in words” value [5] read?
Answer: The value was “superior to "Zinc Yellow" (zinc chromate) in salt spray durability”.

Question: With `CCNCC.O=C([O-])CCCCCCCCCCC(=O)[O-].[Zn+2]` [Compound 12, Zinc Dodecanedioate Diethylamine] as the molecule, how does the “Corrosion Curr. (Icorr)” value [1] read?
Answer: The value was 197 microamps.

Question: With “Zinc Thiodiphenolate Ethylenediamine [Compound 14]” as the molecule, how does the “Paint panel durability in salt spray, in words” value [5] read?
Answer: Its value is “slightly less than half the durability achieved by the commercial "Zinc Yellow" (zinc chromate) corrosion-inhibitor formulation; also recorded: performed markedly better than commercially available corrosion inhibitors, such as Nalzin, Halox, Busan, "Moly White" and zinc phosphate”.

Question: What about the “Toxicity characteristics (overall statement)” value ([8]; acute oral, skin and eye tests of Table VIII) of the same molecule?
Answer: The value was “unacceptable toxicity characteristics”.

Question: And the “Corrosion Curr. (Icorr)” value [1]?
Answer: The value was 52.5 microamps.

Question: What about the “Corrosion Pot. (Ecorr)” value [1] of the same molecule?
Answer: The value was -570 millivolts.

Question: What about the pH [1] of the same molecule?
Answer: Its pH is 8.60.

Question: What about the “Effect of kaolin on salt spray performance” value [2] of the same molecule?
Answer: Its value is “kaolin likewise enhanced the performance”.

Question: What about the “Hours to failure in salt spray (performance level)” value [2] of the same molecule?
Answer: Its value is “approximately 780 hours”.

Question: And the “Eye Irritation, rating in words” value [4]?
Answer: The value was “extremely irritating”.

Question: What does the source list for “Zinc Dibasate Dimethylamine [Compound 21]”?
Answer: Corrosion Curr. (Icorr) [1]: 82 microamps; Corrosion Pot. (Ecorr) [1]: -610 millivolts
